Assay results from PubChem BioAssay (NCI).
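Protocol summary: plate cells (96-well), add compound at 5 concentrations, incubate 48 h, interpolate endpoints linearly. GI50: concentration for 50% inhibition of growth. The concentration for full growth arrest is given as TGI.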

Tests used:
Assay in all cases: growth of human tumour cells (NCI), 48 h
[1] = system: A498 renal
[2] = system: DU-145 prostate
[3] = system: HCT-116 colon
[4] = system: HL-60(TB) leukemia
[5] = system: HOP-62 NSCLC
[6] = system: K-562 leukemia
[7] = system: KM12 colon
[8] = system: MDA-MB-231 breast
[9] = system: NCI-H460 lung
[10] = system: NCI-H522 lung
[11] = system: OVCAR-4 ovarian
[12] = system: OVCAR-8 ovarian
[13] = system: SF-295 CNS
[14] = system: SK-MEL-2 melanoma
[15] = system: SK-MEL-5 melanoma
[16] = system: SK-OV-3 ovarian
[17] = system: TK-10 renal
[18] = system: UACC-257 melanoma
[19] = system: UO-31 renal

SMILES | TGI [1] | TGI [2] | TGI [3] | TGI [4] | TGI [5] | TGI [6] | TGI [7] | TGI [8] | TGI [9] | TGI [10] | TGI [11] | TGI [12] | TGI [13] | TGI [14] | TGI [15] | TGI [16] | TGI [17] | TGI [18] | TGI [19] | GI50 [12]
C[N+]12CCCCC1C(COc1cccc3cccnc13)CCC2 (stereo not drawn) | > 100 µM | > 100 µM | > 100 µM | > 100 µM | > 100 µM | > 100 µM | > 100 µM | > 100 µM | > 100 µM | > 100 µM | > 100 µM | > 100 µM | > 100 µM | > 100 µM | > 100 µM | > 100 µM | > 100 µM | > 100 µM | > 100 µM | –
O=C(O)c1cccc(Nc2c(C(=O)O)cccc2[N+](=O)[O-])c1 | > 100 µM | > 100 µM | > 100 µM | > 100 µM | > 100 µM | > 100 µM | > 100 µM | > 100 µM | > 100 µM | > 100 µM | > 100 µM | > 100 µM | > 100 µM | > 100 µM | > 100 µM | > 100 µM | > 100 µM | > 100 µM | > 100 µM | –
O=C1CSC(c2ccccc2)N1c1nc2cc3sc(N4C(=O)CSC4c4ccccc4)nc3cc2s1 (stereo not drawn) | > 100 µM | > 100 µM | > 100 µM | > 100 µM | > 100 µM | > 100 µM | > 100 µM | > 100 µM | > 100 µM | > 100 µM | > 100 µM | > 100 µM | > 100 µM | > 100 µM | > 100 µM | > 100 µM | > 100 µM | > 100 µM | > 100 µM | –
Cc1sc2nc(N(C)C)oc(=O)c2c1C | > 100 µM | > 100 µM | > 100 µM | > 100 µM | > 100 µM | > 100 µM | > 100 µM | > 100 µM | > 100 µM | > 100 µM | > 100 µM | > 100 µM | > 100 µM | > 100 µM | > 100 µM | > 100 µM | > 100 µM | > 100 µM | > 100 µM | –
CCOc1cccc(C=Nc2ccccc2SSc2ccccc2N=Cc2cccc(OCC)c2O)c1O | 44 µM | 30.9 µM | 11.2 µM | 14.8 µM | 30.9 µM | 27.6 µM | 19.6 µM | 35 µM | 20.1 µM | 10.4 µM | 14.3 µM | 8.33 µM | 37.6 µM | 37.7 µM | 7.58 µM | 52 µM | 51.4 µM | 21.2 µM | 26.6 µM | –
CC1=NN(c2ccccc2)C2(C1)C(Cl)C(=O)N2c1nc2ccccc2s1 (stereo not drawn) | > 100 µM | > 100 µM | 51.5 µM | 55.5 µM | 82.6 µM | > 100 µM | > 100 µM | 89.2 µM | > 100 µM | 58.9 µM | > 100 µM | > 100 µM | > 100 µM | 78.1 µM | 73.3 µM | > 100 µM | > 100 µM | > 100 µM | > 100 µM | –
Cn1c(-c2cccs2)cc(-c2cccs2)c1-c1cccs1 | > 100 µM | > 100 µM | > 100 µM | > 100 µM | > 100 µM | > 100 µM | > 100 µM | > 100 µM | > 100 µM | > 93.5 µM | > 100 µM | > 100 µM | > 100 µM | > 100 µM | > 100 µM | > 100 µM | > 100 µM | > 100 µM | > 100 µM | –
CC(C)OC(=O)c1ccc(NCC2=CC(=O)C=CC2=O)cc1 | 90.3 µM | 35.8 µM | 28.6 µM | 5.24 µM | > 100 µM | 7.39 µM | 41.8 µM | 25 µM | > 100 µM | 3.27 µM | 26.2 µM | 29.7 µM | > 83.1 µM | 31.5 µM | 32.2 µM | > 100 µM | 28.6 µM | 27.2 µM | 21.8 µM | –
CC1=NN(c2cccc(S(=O)(=O)O)c2)C2(C1)C(Cl)C(=O)N2c1nc2ccccc2s1 (stereo not drawn) | 34 µM | 25.2 µM | 20.4 µM | 7.16 µM | 17.9 µM | > 41.4 µM | 27.4 µM | 23.1 µM | 26.3 µM | 3.99 µM | 14.9 µM | 19.1 µM | 28 µM | 15.4 µM | 18.8 µM | 24.2 µM | 27.3 µM | 28.3 µM | 8.27 µM | –
COC(=O)C1=CC2C(=O)c3ccccc3C1(c1ccccc1)N2C1CCCCC1 (stereo not drawn) | > 100 µM | > 100 µM | > 100 µM | > 100 µM | 36.8 µM | > 100 µM | 32.1 µM | 42.8 µM | 40.6 µM | 82.3 µM | 91.6 µM | > 100 µM | 55.3 µM | 29.1 µM | 22 µM | > 100 µM | > 100 µM | 39 µM | > 100 µM | –
CC(NC(=O)OCc1ccccc1)NC(=O)OC(C)(C)C (stereo not drawn) | > 100 µM | > 100 µM | > 100 µM | > 100 µM | > 100 µM | > 100 µM | > 100 µM | > 100 µM | > 100 µM | > 100 µM | > 100 µM | > 100 µM | > 100 µM | > 100 µM | > 100 µM | > 100 µM | > 100 µM | > 100 µM | > 100 µM | –
COc1ccc(CNc2ccn(C3OC(CO)C(O)C3O)c(=O)n2)cc1 (stereo not drawn) | > 100 µM | > 100 µM | > 100 µM | 83.3 µM | > 100 µM | > 100 µM | > 100 µM | > 100 µM | > 100 µM | > 100 µM | > 100 µM | > 100 µM | > 100 µM | > 100 µM | > 100 µM | > 100 µM | > 100 µM | > 100 µM | > 100 µM | –
O=C1c2ccccc2-c2nnc(-c3ccc([N+](=O)[O-])cc3)cc21 | > 10 µM | > 10 µM | > 10 µM | > 10 µM | > 10 µM | > 10 µM | > 10 µM | > 10 µM | > 10 µM | > 10 µM | > 10 µM | > 10 µM | > 10 µM | > 10 µM | > 10 µM | > 10 µM | > 10 µM | > 10 µM | > 10 µM | –
COc1nn(Cc2ccccn2)c2ccc([N+](=O)[O-])cc12 | > 100 µM | > 100 µM | > 100 µM | 64.1 µM | > 100 µM | > 100 µM | > 100 µM | > 100 µM | > 100 µM | > 100 µM | > 100 µM | > 100 µM | > 100 µM | > 100 µM | > 100 µM | > 100 µM | > 100 µM | > 100 µM | > 100 µM | –
CCOC(=O)CC[C@H](N)C(=O)N[C@@H](Cc1ccc(N(CCCl)CCCl)cc1)C(=O)OCC | 42 µM | 5.56 µM | 4.09 µM | 1.33 µM | 9.94 µM | > 33 µM | 11.6 µM | 4.41 µM | 2.48 µM | 2.54 µM | 1.41 µM | 1.99 µM | 14.8 µM | 5.28 µM | 3.13 µM | 4.99 µM | 4.26 µM | 5.09 µM | 3.44 µM | 0.564 µM
C/C(Cl)=N/OC(=O)Nc1ccc(F)c([N+](=O)[O-])c1 | 39 µM | 33 µM | > 30.8 µM | 6.02 µM | 33.9 µM | > 23.9 µM | 33.8 µM | 37.4 µM | > 100 µM | 4.27 µM | 40.7 µM | 31.7 µM | > 100 µM | 32.2 µM | 29.2 µM | 45 µM | 13.2 µM | 53.2 µM | 20.5 µM | –
O=C1CC(Br)c2c(Br)sc(Br)c21 (stereo not drawn) | > 100 µM | 45.7 µM | 26.4 µM | 39.3 µM | 39 µM | 29.9 µM | 49 µM | 35.1 µM | 31.4 µM | 24.4 µM | 33.3 µM | 29.6 µM | 58.7 µM | 35.8 µM | 35.4 µM | 55.9 µM | 32.4 µM | 29.1 µM | 34.7 µM | –
CC(=O)C(C(=O)c1ccc(C)cc1)[C@@H]1OC(C)(C)O[C@@H]1[C@H]1COC(C)(C)O1 (stereo partly drawn) | > 75.7 µM | 29.8 µM | 15.4 µM | 25.1 µM | > 58.4 µM | > 32 µM | 65.6 µM | > 35.1 µM | > 88.9 µM | 11.3 µM | > 26.3 µM | > 50.7 µM | > 100 µM | > 23.2 µM | 29.2 µM | > 100 µM | > 100 µM | 28.6 µM | > 41.5 µM | –
CC(C)C[C@H]1[C@@H](OCc2ccccc2)COS(=O)(=O)N1[C@H](C)c1ccccc1 | > 100 µM | > 100 µM | > 100 µM | > 69.7 µM | > 100 µM | > 100 µM | > 100 µM | > 100 µM | > 100 µM | > 100 µM | > 100 µM | > 100 µM | > 100 µM | > 100 µM | > 64.4 µM | > 100 µM | > 100 µM | > 100 µM | > 100 µM | –
COC(=O)/C(C)=N/NC(=S)SC | > 100 µM | > 100 µM | 98.5 µM | 28.5 µM | > 100 µM | > 100 µM | > 100 µM | > 100 µM | > 100 µM | 81.8 µM | > 100 µM | > 100 µM | > 100 µM | > 100 µM | > 100 µM | > 100 µM | > 100 µM | > 100 µM | > 100 µM | –
O=C(CSc1ncccn1)N/N=C/c1ccccc1OCc1ccccc1 | 71.8 µM | 96.7 µM | 53.4 µM | 47.5 µM | 83.1 µM | > 100 µM | > 100 µM | 95.3 µM | 94.9 µM | 79.2 µM | > 100 µM | > 100 µM | 50.9 µM | 47.6 µM | 28.4 µM | > 100 µM | 62.4 µM | 53.5 µM | > 100 µM | –
C=CCN1C(=O)/C(=C/c2ccc(Cl)cc2)N=C1SC/C=C/C | > 100 µM | > 100 µM | > 100 µM | 57.5 µM | > 100 µM | > 100 µM | > 100 µM | > 100 µM | > 100 µM | > 100 µM | > 100 µM | > 100 µM | > 100 µM | 68.2 µM | 82 µM | > 100 µM | > 100 µM | > 100 µM | > 100 µM | –
C[C@]12CC[C@H]3[C@@H](CCC4=CC(=O)CC[C@@H]43)[C@@H]1CC[C@]2(O)C(N)=O | > 100 µM | > 100 µM | > 100 µM | > 100 µM | > 100 µM | > 100 µM | > 100 µM | > 100 µM | > 100 µM | > 100 µM | > 100 µM | > 100 µM | > 100 µM | > 100 µM | > 100 µM | > 100 µM | > 100 µM | > 100 µM | > 100 µM | –
